Measurements published in publication PMC3921138, “Identification and Biochemical Characterization of Four Wood-Associated Glucuronoxylan Methyltransferases in Populus” (PLoS ONE, 2014).

Assays:
Test in all cases: radiometric […]-methyl transfer, Lineweaver-Burk
Format in all cases: biochemical
Conditions in all cases: co-substrate S-[14C-methyl]adenosylmethionine; 100 mM Tris-HCl pH 8.0, 1 mM CoCl2, 0.5% Triton X-100; temperature of kinetic assay not stated; read-out: apparent K m
PtrGXM2 = target: T1, PtrGXM2 (Populus trichocarpa, UniProt W8JCL4)
T1 construct: gene GXM2; transmembrane domain removed; E. coli; full-length start MRPKSQQ, recombinant start SSSQESS, C-terminus DRPFCPE (translated from primers)
T1 sequence (W8JCL4 33-288): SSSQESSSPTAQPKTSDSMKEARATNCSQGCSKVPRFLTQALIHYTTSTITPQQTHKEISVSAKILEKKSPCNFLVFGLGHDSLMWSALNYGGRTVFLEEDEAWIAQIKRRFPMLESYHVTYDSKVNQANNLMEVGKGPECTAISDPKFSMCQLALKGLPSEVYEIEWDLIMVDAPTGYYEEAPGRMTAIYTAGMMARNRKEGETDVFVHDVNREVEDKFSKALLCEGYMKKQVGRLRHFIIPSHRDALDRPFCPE

PtrGXM3 = target: T2, PtrGXM3 (Populus trichocarpa, UniProt A9PC88)
T2 construct: gene GXM3; transmembrane domain removed; E. coli; full-length start MRPNKNQ, recombinant start SSPRSNP, C-terminus SGRPFCP (translated from primers)
T2 sequence (A9PC88 34-304): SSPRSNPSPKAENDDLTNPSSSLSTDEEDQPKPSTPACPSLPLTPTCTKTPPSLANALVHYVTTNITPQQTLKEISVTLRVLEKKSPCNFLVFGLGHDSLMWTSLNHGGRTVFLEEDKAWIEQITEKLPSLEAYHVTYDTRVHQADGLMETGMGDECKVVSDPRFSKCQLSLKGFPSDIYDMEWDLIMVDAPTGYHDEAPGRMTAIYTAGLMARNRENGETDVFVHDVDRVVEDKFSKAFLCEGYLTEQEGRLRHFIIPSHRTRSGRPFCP

PtrGXM1 = target: T3, PtrGXM1 (Populus trichocarpa, UniProt W8JDL1)
T3 construct: gene GXM1; transmembrane domain removed; E. coli; full-length start MRPKGQ, recombinant start PSSQESP, C-terminus DRPFCPE (translated from primers)
T3 sequence (W8JDL1 33-288): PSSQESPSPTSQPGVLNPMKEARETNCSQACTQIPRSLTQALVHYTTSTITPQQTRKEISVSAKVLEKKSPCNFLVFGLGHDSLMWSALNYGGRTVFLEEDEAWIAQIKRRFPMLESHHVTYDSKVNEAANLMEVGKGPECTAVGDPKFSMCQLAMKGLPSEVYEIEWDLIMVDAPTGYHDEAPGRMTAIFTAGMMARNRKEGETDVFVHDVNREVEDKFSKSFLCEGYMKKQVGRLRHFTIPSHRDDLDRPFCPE

PtrGXM4 = target: T4, PtrGXM4 (Populus trichocarpa, UniProt W8JN21)
T4 construct: gene GXM4; transmembrane domain removed; E. coli; full-length start MRSKNQS, recombinant start SPRPNSS, C-terminus SGKPFCP (translated from primers)
T4 sequence (W8JN21 34-301): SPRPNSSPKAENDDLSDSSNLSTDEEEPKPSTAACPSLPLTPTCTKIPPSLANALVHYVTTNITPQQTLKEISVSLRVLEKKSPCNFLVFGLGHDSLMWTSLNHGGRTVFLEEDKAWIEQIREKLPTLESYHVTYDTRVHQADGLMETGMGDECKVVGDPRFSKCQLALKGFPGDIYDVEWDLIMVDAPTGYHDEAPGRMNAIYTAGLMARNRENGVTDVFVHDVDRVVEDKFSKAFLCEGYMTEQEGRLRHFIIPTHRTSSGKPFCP

Km (PtrGXM2): 3980 µM
Km (PtrGXM3): 300 µM
Km (PtrGXM1): 3250 µM
Km (PtrGXM4): 290 µM
Substance: GlcA-substituted Xyl4
